The text below walks through data of ChEMBL document CHEMBL1148518, “Synthesis and SAR of alpha-sulfonylcarboxylic acids as potent matrix metalloproteinase inhibitors” (Bioorg Med Chem Lett, 2006).

Series [1] addresses 72 kDa type IV collagenase (Homo sapiens, UniProt P08253).
For series [2], the target named is Matrix metalloproteinase-9 (Homo sapiens, UniProt P14780).
Series [3] addresses T1, Interstitial collagenase (Homo sapiens, UniProt P03956).
T1 sequence (P03956 whole entry): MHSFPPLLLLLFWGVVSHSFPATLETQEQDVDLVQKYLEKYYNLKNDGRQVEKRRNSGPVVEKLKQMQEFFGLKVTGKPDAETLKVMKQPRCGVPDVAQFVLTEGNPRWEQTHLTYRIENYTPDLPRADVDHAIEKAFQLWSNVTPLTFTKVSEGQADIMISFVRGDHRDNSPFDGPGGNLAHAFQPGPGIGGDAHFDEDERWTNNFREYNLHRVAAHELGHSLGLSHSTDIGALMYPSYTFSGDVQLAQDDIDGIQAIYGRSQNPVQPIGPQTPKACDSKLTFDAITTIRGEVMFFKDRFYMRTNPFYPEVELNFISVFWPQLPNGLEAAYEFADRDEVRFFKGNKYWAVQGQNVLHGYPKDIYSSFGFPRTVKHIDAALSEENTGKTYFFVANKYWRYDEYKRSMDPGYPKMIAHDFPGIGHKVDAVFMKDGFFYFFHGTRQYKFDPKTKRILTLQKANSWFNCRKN
Put plainly: Inhibition of MMP1.

Series [4] deals with Stromelysin-1 (Homo sapiens, UniProt P08254). The experiment in a line: Inhibition of MMP3.
Chain of Stromelysin-1 (P08254 whole entry): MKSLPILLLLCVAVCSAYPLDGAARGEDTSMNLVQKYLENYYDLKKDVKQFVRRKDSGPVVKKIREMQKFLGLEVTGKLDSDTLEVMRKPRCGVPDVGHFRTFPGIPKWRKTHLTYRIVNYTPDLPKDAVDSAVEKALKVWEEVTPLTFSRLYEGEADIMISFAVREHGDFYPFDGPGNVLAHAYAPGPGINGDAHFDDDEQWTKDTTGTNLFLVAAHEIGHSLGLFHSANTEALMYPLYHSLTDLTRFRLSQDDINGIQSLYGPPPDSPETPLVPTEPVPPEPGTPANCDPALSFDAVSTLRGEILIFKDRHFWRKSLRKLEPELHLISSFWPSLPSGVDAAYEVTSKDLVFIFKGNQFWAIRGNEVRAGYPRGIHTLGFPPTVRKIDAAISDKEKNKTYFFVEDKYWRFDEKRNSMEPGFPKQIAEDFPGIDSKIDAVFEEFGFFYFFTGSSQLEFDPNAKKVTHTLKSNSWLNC
Series [5] has as its target Collagenase 3 (Homo sapiens, UniProt P45452).
For series [6], the system named is Rattus norvegicus. The experiment in a line: (§1) Apparent elimination half life in rat at 0.5 mg/kg, iv. Format: ADME, organism-based. Set-up: dose 0.5 mg/kg, route intravenous. Conditions: in vivo.
The nature of series [7]: AUC in rat at 0.5 mg/kg, iv. In kind it is ADME, organism-based. Conditions: plasma. Further details: dose 0.5 mg/kg, route intravenous.
Series [8] has as its system Rattus norvegicus. Put plainly: (§2) Volume of distribution in rat at 0.5 mg/kg, iv. Format: ADME, organism-based. Further details: dose 0.5 mg/kg, route intravenous. Conditions: in vivo.
A short description of series [9]: Metabolic stability in human liver microsomes. Format: ADME, Microsome.
Series [10] is described as follows: Initial concentration in rat at 0.5 mg/kg, iv. Format: ADME, organism-based. Set-up: dose 0.5 mg/kg, route intravenous. Conditions: in vivo.
Series [11] in a line: as §1. Set-up: dose 0.5 mg/kg, route intravenous. Conditions: in vivo. Format: ADME, organism-based.
Series [12] in a line: as §2. In kind it is ADME, organism-based. Further details: dose 0.5 mg/kg, route intravenous. Conditions: in vivo, read-out: Vss.
Series [13] in a line: Clearance in rat at 0.5 mg/kg, iv. In kind it is ADME, organism-based. Further details: dose 0.5 mg/kg, route intravenous. Conditions: in vivo.

Structures are written as SMILES. Where only a bound is given, the exact number is not on record here.

Chain of Matrix metalloproteinase-9 (P14780 whole entry): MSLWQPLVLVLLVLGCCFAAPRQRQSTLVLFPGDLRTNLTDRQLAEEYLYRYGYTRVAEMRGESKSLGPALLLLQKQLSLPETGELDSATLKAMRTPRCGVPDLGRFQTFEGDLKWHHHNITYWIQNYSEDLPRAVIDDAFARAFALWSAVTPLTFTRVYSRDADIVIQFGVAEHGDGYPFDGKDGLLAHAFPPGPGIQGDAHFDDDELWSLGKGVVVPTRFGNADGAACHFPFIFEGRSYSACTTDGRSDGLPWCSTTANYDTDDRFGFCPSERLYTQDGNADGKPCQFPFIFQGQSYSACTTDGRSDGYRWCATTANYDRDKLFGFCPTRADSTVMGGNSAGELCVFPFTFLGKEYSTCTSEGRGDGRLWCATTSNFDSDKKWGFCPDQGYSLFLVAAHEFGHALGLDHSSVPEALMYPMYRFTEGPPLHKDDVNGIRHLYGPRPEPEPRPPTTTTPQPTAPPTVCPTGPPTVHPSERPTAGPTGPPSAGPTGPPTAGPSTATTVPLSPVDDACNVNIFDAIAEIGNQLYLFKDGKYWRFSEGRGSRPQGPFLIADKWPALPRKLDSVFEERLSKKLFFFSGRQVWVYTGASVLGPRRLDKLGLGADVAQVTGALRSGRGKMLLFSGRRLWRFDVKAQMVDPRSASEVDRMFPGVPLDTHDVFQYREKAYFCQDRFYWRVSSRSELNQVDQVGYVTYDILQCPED
Chain of 72 kDa type IV collagenase (P08253 whole entry): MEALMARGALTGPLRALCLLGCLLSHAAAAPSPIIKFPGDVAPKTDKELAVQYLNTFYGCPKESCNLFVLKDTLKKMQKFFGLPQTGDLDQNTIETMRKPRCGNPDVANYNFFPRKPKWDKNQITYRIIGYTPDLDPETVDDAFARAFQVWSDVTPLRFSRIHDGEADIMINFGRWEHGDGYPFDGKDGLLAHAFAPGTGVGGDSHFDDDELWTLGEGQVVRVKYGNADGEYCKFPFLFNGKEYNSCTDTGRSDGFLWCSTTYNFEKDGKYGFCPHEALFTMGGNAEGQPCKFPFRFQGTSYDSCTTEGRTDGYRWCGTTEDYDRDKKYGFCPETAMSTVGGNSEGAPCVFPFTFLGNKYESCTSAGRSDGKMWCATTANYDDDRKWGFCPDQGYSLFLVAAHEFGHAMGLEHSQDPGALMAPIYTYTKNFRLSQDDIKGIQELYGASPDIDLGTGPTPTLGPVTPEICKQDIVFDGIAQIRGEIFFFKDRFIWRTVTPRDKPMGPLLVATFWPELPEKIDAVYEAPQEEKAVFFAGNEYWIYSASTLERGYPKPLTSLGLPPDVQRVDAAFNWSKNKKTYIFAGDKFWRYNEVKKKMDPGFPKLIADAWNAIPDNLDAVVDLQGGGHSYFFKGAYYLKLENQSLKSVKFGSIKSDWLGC

As for `Cc1ccc(C#Cc2ccc([S+]([O-])C(CCN3C(=O)c4ccccc4C3=O)C(=O)O)cc2)cc1` (centres undefined), 1.5 nM corresponded to half-maximal inhibition in series [1] (IC50).

Turning to `COc1cccc(C#Cc2ccc(SC(CCN3C(=O)c4ccccc4C3=O)C(=O)O)cc2)c1` (centres undefined), half-maximal inhibition in series [1] (IC50) required 4 nM.

Compound `N#Cc1ccc(N2CCN(c3ccc(S(=O)(=O)C(CCN4C(=O)c5ccccc5C4=O)C(=O)O)cc3)CC2)cc1` (centres undefined) showed a half-inhibitory concentration (IC50) in series [1] of 6.8 nM.

In series [1], `COc1ccc(-c2ccc(S(=O)(=O)C(CCN3C(=O)c4ccccc4C3=O)C(=O)O)cc2)cc1` (centres undefined) returned an IC50 of 0.84 nM.

For the compound `CC(C)c1ccc(C#Cc2ccc(SC(CCN3C(=O)c4ccccc4C3=O)C(=O)O)cc2)cc1` (centres undefined), in series [1], the IC50 stood at 1.7 nM.

Take `O=C(O)C(CCN1C(=O)c2ccccc2C1=O)S(=O)(=O)c1ccc(Oc2ccc(OC(F)(F)F)cc2)cc1` (centres undefined): in series [1], the half-maximal inhibitory concentration (IC50) is 19 nM.

With `O=C(O)C(CCN1C(=O)c2ccccc2C1=O)S(=O)(=O)c1ccc(N2CC=C(c3ccc(Cl)cc3)CC2)cc1` (centres undefined), the IC50 in [1] worked out at 12 nM.

`O=C(O)C(CCN1Cc2ccccc2C1=O)S(=O)(=O)c1ccc(-c2ccc(Cl)cc2)cc1` (centres undefined): the figures for the 50% inhibitory concentration (IC50) in series [1] and in [2] were 8.6 nM and 96.5 nM, respectively.

In turn, `CCCCc1ccc(C#Cc2ccc(SC(CCN3C(=O)c4ccccc4C3=O)C(=O)O)cc2)cc1` (centres undefined) showed an IC50 in series [1] of 2.3 nM.

For the compound `N#Cc1ccc(-c2ccc(S(=O)(=O)C(CCN3C(=O)c4ccccc4C3=O)C(=O)O)cc2)cc1` (centres undefined), the half-inhibitory concentration (IC50) in [1] came out at 3 nM.

Take `O=C(O)C(CN1C(=O)c2ccccc2C1=O)S(=O)(=O)c1ccc(-c2ccc(Cl)cc2)cc1` (centres undefined): the results for the IC50 in [1] and in [2] were 556 nM and 1050 nM, respectively.

`CSc1ccc(-c2ccc(S(=O)(=O)C(CCN3C(=O)c4ccccc4C3=O)C(=O)O)cc2)cc1` (centres undefined) showed an IC50 in series [1] of 0.74 nM.

As to `Cc1ccc(C#Cc2ccc(SC(CCN3C(=O)c4ccccc4C3=O)C(=O)O)cc2)cc1` (centres undefined), half-maximal inhibition in series [1] (IC50) required 33 nM.

Take `O=C(O)C(CCN1C(=O)c2ccccc2C1=O)Sc1ccc(C#Cc2ccc(Cl)cc2)cc1` (centres undefined): in series [1], the concentration for half-maximal inhibition (IC50) stood at 1.9 nM.

With `O=C(O)C(CCSc1ccccc1)S(=O)(=O)c1ccc(-c2ccc(Cl)cc2)cc1` (centres undefined), the concentration for half-maximal inhibition (IC50) was 295 nM in [1] and over 10000 nM in series [2].

On to `O=C(O)C(CCN1C(=O)c2ccccc2C1=O)S(=O)(=O)c1ccc(-c2nc3ccc(F)cc3[nH]2)cc1` (centres undefined), for which the IC50 was over 1000 nM in [3], 34 nM in series [4], 0.7 nM in [1] and 0.8 nM in [5].

Turning to `Cc1ccc(C#Cc2ccc(S(=O)(=O)C(CCN3C(=O)c4ccccc4C3=O)C(=O)O)cc2)cc1` (centres undefined), the IC50 in series [3] is over 1000 nM; in [4], 28 nM; in series [1], 0.7 nM; in series [5], 1.4 nM.

For `O=C(O)C(CCN1C(=O)c2ccccc2C1=O)S(=O)(=O)c1ccc(-c2ccc(Cl)cc2)cc1` (centres undefined), the T1/2 in [6] came out at 84 min. In [7], the AUC was 18200 ng·h/mL. In series [8], this compound showed a distribution volume (Vss) of 0.4 L/kg. Moreover, the half-life in series [9] stood at 230 min. In addition, the C0 in series [10] was 41.4 µM. The IC50 in series [1] was found to be 1.8 nM.

Regarding `CCCc1ccc(C#Cc2ccc(SC(CCN3C(=O)c4ccccc4C3=O)C(=O)O)cc2)cc1` (centres undefined), in [1], it took 1.1 nM to reach half-maximal inhibition (IC50).

In [1], `COc1ccc(C(=O)Cc2ccc(SC(CCN3C(=O)c4ccccc4C3=O)C(=O)O)cc2)cc1` (centres undefined) displayed a half-maximal inhibitory concentration (IC50) of 54 nM.

The compound `O=C(O)C(CCN1C(=O)c2ccccc2C1=O)Sc1ccc(C#Cc2ccc(OC(F)(F)F)cc2)cc1` (centres undefined) yielded a 50% inhibitory concentration (IC50) in series [1] of 1.3 nM.

For the compound `CCCC(C(=O)O)S(=O)(=O)c1ccc(-c2ccc(Cl)cc2)cc1` (centres undefined), the figures for the IC50 in series [1] and in series [2] were 792 nM and 10000 nM, respectively.

As to `O=C(O)C(CCN1C(=O)c2ccccc2C1=O)S(=O)(=O)c1ccc(-c2ccc(F)cc2)cc1` (centres undefined), inhibition in [1] was half-maximal at 6.5 nM (IC50).

Compound `CCc1ccc(C#Cc2ccc(SC(CCN3C(=O)c4ccccc4C3=O)C(=O)O)cc2)cc1` (centres undefined) yielded a half-inhibitory concentration (IC50) in series [1] of 1.3 nM.

With `O=C(O)C(CCCN1C(=O)c2ccccc2C1=O)S(=O)(=O)c1ccc(-c2ccc(Cl)cc2)cc1` (centres undefined), the IC50 in [1] is 145 nM; in series [2] it was 2120 nM.

The compound `CC(CCN1C(=O)c2ccccc2C1=O)(C(=O)O)S(=O)(=O)c1ccc(-c2ccc(Cl)cc2)cc1` (centres undefined) showed an IC50 in series [1] of 52 nM.

Regarding `O=C(NO)C(CCN1C(=O)c2ccccc2C1=O)S(=O)(=O)c1ccc(-c2ccc(Cl)cc2)cc1` (centres undefined), the half-life was 58.8 min in [11] and 12 min in [9]. For the same compound, in series [7], the AUC was 2940 ng·h/mL. For the same compound, the Vd in [12] is 0.1 L/kg. Besides, the clearance in series [13] came to 2.9 mL/min/kg. Moreover, in [10], the C0 amounted to 13.9 µM. The half-inhibitory concentration (IC50) stood at 0.62 nM in [1] and 1.4 nM in series [2].

Regarding `CC(C)c1ccc(-c2ccc(S(=O)(=O)C(CCN3C(=O)c4ccccc4C3=O)C(=O)O)cc2)cc1` (centres undefined), it took 0.98 nM to reach half-maximal inhibition in series [1] (IC50).

As for `CC(CCN1Cc2ccccc2C1)(C(=O)O)S(=O)(=O)c1ccc(-c2ccc(Cl)cc2)cc1` (centres undefined), the half-inhibitory concentration (IC50) is 3060 nM in series [1] and over 10000 nM in series [2].

Regarding `Cc1ccc(-c2ccc(S(=O)(=O)C(CCN3C(=O)c4ccccc4C3=O)C(=O)O)cc2)cc1` (centres undefined), the 50% inhibitory concentration (IC50) in series [1] came to 1.2 nM.
